Results as given in US20100173930A1, “Certain Chemical Entities, Compositions and Methods” (priority 2006, published 2010).

Test system: SKM MYOFIBRIL
Assay: SKM myofibril AC1.4 (ATPase, PK/LDH coupled enzyme system); also: unit not given here
Format: biochemical
Settings: screen at pCa=6.5

Compound | SKM MYOFIBRIL AC1.4 (median)
Oc1ccccc1-c1nc2cnccn2c1NCc1cccs1 [2-{3-[(2-thienylmethyl)amino]-4-hydroimidazo[1,2-a]pyrazin-2-yl}phenol] | 10.6577
Cc1ccn2c(NCc3ccccc3)c(-c3ccccc3O)nc2c1 [2-{7-methyl-3-[benzylamino]-4-hydroimidazo[1,2-a]pyridin-2-yl}phenol] | 2.0618
Cc1ccn2c(NCC(=O)N3CCCCC3)c(-c3ccccc3O)nc2c1 [2-{[2-(2-hydroxyphenyl)-7-methyl(4-hydroimidazo[1,2-a]pyridin-3-yl)]amino}-1-piperidylethan-1-one] | 40.2086
COc1cccc2nc(O)c(-c3nc4cc(C)ccn4c3NCc3cccc(Cl)c3)cc12 [3-(3-{[(3-chlorophenyl)methyl]amino}-7-methyl(4-hydroimidazo[1,2-a]pyridin-2-yl))-5-methoxyquinolin-2-ol] | 2.3608
Cc1ccc2cc(-c3nc4cc(C)ccn4c3NCc3cccc(Cl)c3)c(O)nc2c1 [3-(3-{[(3-chlorophenyl)methyl]amino}-7-methyl(4-hydroimidazo[1,2-a]pyridin-2-yl))-7-methylquinolin-2-ol] | 9.2086
Cc1ccc2cc(-c3nc4cc(C)ccn4c3NCc3ccc(F)cc3)c(O)nc2c1 [3-(3-{[(4-fluorophenyl)methyl]amino}-7-methyl(4-hydroimidazo[1,2-a]pyridin-2-yl))-7-methylquinolin-2-ol] | 38.7091
N#Cc1ccc2nc(-c3ccc(O)cc3)c(NC3CCCC3)n2c1 [3-(cyclopentylamino)-2-(4-hydroxyphenyl)-4-hydroimidazo[1,2-a]pyridine-6-carbonitrile] | 46.9669
N#Cc1ccn2c(NC3CCCC3)c(-c3ccc(O)cc3)nc2c1 [3-(cyclopentylamino)-2-(4-hydroxyphenyl)-4-hydroimidazo[1,2-a]pyridine-7-carbonitrile] | 17.9621
CCC(C)(C)Nc1c(-c2cc3cc(C)ccc3nc2O)nc2ccccn12 [3-{3-[(1,1-dimethylpropyl)amino](4-hydroimidazo[1,2-a]pyridin-2-yl)}-6-methylquinolin-2-ol] | 1.1087
CCC(C)(C)Nc1c(-c2cc3ccc(C)c(C)c3nc2O)nc2ccccn12 [3-{3-[(1,1-dimethylpropyl)amino](4-hydroimidazo[1,2-a]pyridin-2-yl)}-7,8-dimethylquinolin-2-ol] | 1.5814
CCC(C)(C)Nc1c(-c2cc3cccc(C)c3nc2O)nc2ccccn12 [3-{3-[(1,1-dimethylpropyl)amino](4-hydroimidazo[1,2-a]pyridin-2-yl)}-8-methylquinolin-2-ol] | 2.3075
O=C(c1ccc2nc(-c3ccccc3O)c(NCc3cccc(Cl)c3)n2c1)N1CCOCC1 [3-{[(3-chlorophenyl)methyl]amino}-2-(2-hydroxyphenyl)(4-hydroimidazo[1,2-a]pyridin-6-yl) morpholin-4-yl ketone] | 24.9925
N#Cc1ccc2nc(-c3ccccc3O)c(NCc3cccc(Cl)c3)n2c1 [3-{[(3-chlorophenyl)methyl]amino}-2-(2-hydroxyphenyl)-4-hydroimidazo[1,2-a]pyridine-6-carbonitrile] | 2.6805
NC(=O)c1ccc2nc(-c3ccccc3O)c(NCc3cccc(Cl)c3)n2c1 [3-{[(3-chlorophenyl)methyl]amino}-2-(2-hydroxyphenyl)-4-hydroimidazo[1,2-a]pyridine-6-carboxamide] | 1.2788
O=C(O)c1ccc2nc(-c3ccccc3O)c(NCc3cccc(Cl)c3)n2c1 [3-{[(3-chlorophenyl)methyl]amino}-2-(2-hydroxyphenyl)-4-hydroimidazo[1,2-a]pyridine-6-carboxylic acid] | 15.043
NC(=O)c1ccc2nc(-c3ccccc3O)c(NCc3ccc(F)cc3)n2c1 [3-{[(4-fluorophenyl)methyl]amino}-2-(2-hydroxyphenyl)-4-hydroimidazo[1,2-a]pyridine-6-carboxamide] | 2.0079
O=C(O)c1ccc2nc(-c3ccccc3O)c(NCc3ccc(F)cc3)n2c1 [3-{[(4-fluorophenyl)methyl]amino}-2-(2-hydroxyphenyl)-4-hydroimidazo[1,2-a]pyridine-6-carboxylic acid] | 30.4725
N#Cc1ccn2c(NCc3ccc(F)cc3)c(-c3ccc(O)cc3)nc2c1 [3-{[(4-fluorophenyl)methyl]amino}-2-(4-hydroxyphenyl)-4-hydroimidazo[1,2-a]pyridine-7-carbonitrile] | 19.6705
Oc1ccc(-c2nc3ccccn3c2NCc2ccc(F)cc2F)cc1 [4-(3-{[(2,4-difluorophenyl)methyl]amino}-4-hydroimidazo[1,2-a]pyridin-2-yl)phenol] | 37.1035
Oc1ccc(-c2nc3ccccn3c2NCc2ccccc2Cl)cc1 [4-(3-{[(2-chlorophenyl)methyl]amino}-4-hydroimidazo[1,2-a]pyridin-2-yl)phenol] | 17.7003
Oc1ccc(-c2nc3ccccn3c2NCc2cccc(Cl)c2)cc1 [4-(3-{[(3-chlorophenyl)methyl]amino}-4-hydroimidazo[1,2-a]pyridin-2-yl)phenol] | 10.5567
Cc1ccn2c(NCc3cccc(Cl)c3)c(-c3ccc(O)cc3O)nc2c1 [4-(3-{[(3-chlorophenyl)methyl]amino}-7-methyl-4-hydroimidazo[1,2-a]pyridin-2-yl)benzene-1,3-diol] | 22.1516

Compound | SKM MYOFIBRIL AC1.4 (median)
Oc1ccc(-c2nc3ccccn3c2NCc2cccc(F)c2)cc1 [4-(3-{[(3-fluorophenyl)methyl]amino}-4-hydroimidazo[1,2-a]pyridin-2-yl)phenol] | 28.3763
Oc1ccc(-c2nc3ccccn3c2NCc2ccc(Cl)cc2)cc1 [4-(3-{[(4-chlorophenyl)methyl]amino}-4-hydroimidazo[1,2-a]pyridin-2-yl)phenol] | 21.4002
Oc1ccc(-c2nc3ccccn3c2NCc2ccc(F)cc2)cc1 [4-(3-{[(4-fluorophenyl)methyl]amino}-4-hydroimidazo[1,2-a]pyridin-2-yl)phenol] | 40.3674
Oc1ccc(-c2nc3ccc(-c4ccccc4)cn3c2NCc2ccc(F)cc2)cc1 [4-(3-{[(4-fluorophenyl)methyl]amino}-6-phenyl-4-hydroimidazo[1,2-a]pyridin-2-yl)phenol] | 15.7257
Cc1ccn2c(NCc3ccc(F)cc3)c(-c3ccc(O)cc3)nc2c1 [4-(3-{[(4-fluorophenyl)methyl]amino}-7-methyl-4-hydroimidazo[1,2-a]pyridin-2-yl)phenol] | 44.5161
Oc1ccc(-c2nc3ccc(Cl)cn3c2NCc2ccc(F)cc2)cc1 [4-(6-chloro-3-{[(4-fluorophenyl)methyl]amino}-4-hydroimidazo[1,2-a]pyridin-2-yl)phenol] | 14.9602
Oc1ccc(-c2nc3ccc(F)cn3c2NCc2ccc(F)cc2)cc1 [4-(6-fluoro-3-{[(4-fluorophenyl)methyl]amino}-4-hydroimidazo[1,2-a]pyridin-2-yl)phenol] | 26.5123
Oc1ccc(-c2nc3cc(Cl)ccn3c2NCc2ccc(F)cc2)cc1 [4-(7-chloro-3-{[(4-fluorophenyl)methyl]amino}-4-hydroimidazo[1,2-a]pyridin-2-yl)phenol] | 10.9866
CCCCNc1c(-c2ccc(O)cc2)nc2ccccn12 [4-[3-(butylamino)-4-hydroimidazo[1,2-a]pyridin-2-yl]phenol] | 27.9936
Oc1ccc(-c2nc3ccccn3c2NC2CCCCC2)cc1 [4-[3-(cyclohexylamino)-4-hydroimidazo[1,2-a]pyridin-2-yl]phenol] | 8.513
CCc1ccc2nc(-c3ccc(O)cc3)c(NC3CCCCC3)n2c1 [4-[3-(cyclohexylamino)-6-ethyl-4-hydroimidazo[1,2-a]pyridin-2-yl]phenol] | 4.3136
Cc1cccn2c(NC3CCCCC3)c(-c3ccc(O)cc3)nc12 [4-[3-(cyclohexylamino)-8-methyl-4-hydroimidazo[1,2-a]pyridin-2-yl]phenol] | 8.8767
Oc1ccc(-c2nc3ccccn3c2NC2CCCC2)cc1 [4-[3-(cyclopentylamino)-4-hydroimidazo[1,2-a]pyridin-2-yl]phenol] | 19.8598
Oc1ccc(-c2nc3ccc(F)cn3c2NC2CCCC2)cc1 [4-[3-(cyclopentylamino)-6-fluoro-4-hydroimidazo[1,2-a]pyridin-2-yl]phenol] | 26.6981
Cc1ccc2nc(-c3ccc(O)cc3)c(NC3CCCC3)n2c1 [4-[3-(cyclopentylamino)-6-methyl-4-hydroimidazo[1,2-a]pyridin-2-yl]phenol] | 13.5754
Oc1ccc(-c2nc3ccc(-c4ccccc4)cn3c2NC2CCCC2)cc1 [4-[3-(cyclopentylamino)-6-phenyl-4-hydroimidazo[1,2-a]pyridin-2-yl]phenol] | 22.1213
CCc1ccn2c(NC3CCCC3)c(-c3ccc(O)cc3)nc2c1 [4-[3-(cyclopentylamino)-7-ethyl-4-hydroimidazo[1,2-a]pyridin-2-yl]phenol] | 7.5674
Cc1ccn2c(NC3CCCC3)c(-c3ccc(O)cc3)nc2c1 [4-[3-(cyclopentylamino)-7-methyl-4-hydroimidazo[1,2-a]pyridin-2-yl]phenol] | 4.685
Oc1ccc(-c2nc3cccc(Br)n3c2NC2CCCCC2)cc1 [4-[5-bromo-3-(cyclohexylamino)-4-hydroimidazo[1,2-a]pyridin-2-yl]phenol] | 21.5453
Oc1ccc(-c2nc3ccc(Br)cn3c2NC2CCCCC2)cc1 [4-[6-bromo-3-(cyclohexylamino)-4-hydroimidazo[1,2-a]pyridin-2-yl]phenol] | 12.8016
Cc1cccc2cc3c(nc12)OCC(=O)N(Cc1ccc(Cl)cc1)C3 [4-[(4-chlorophenyl)methyl]-10-methyl-2H,5H-1,4-oxazaperhydroepino[7,6-b]quinolin-3-one] | 18.1529
CC(C)(C)CC(C)(C)Nc1c(-c2ccc(O)cc2)nc2ccccn12 [4-{3-[(1,1,3,3-tetramethylbutyl)amino]-4-hydroimidazo[1,2-a]pyridin-2-yl}phenol] | 23.4246
